Like-named read-outs stand apart in the source and are kept apart here.
Tests used:
HIV-1 IIIB strain = experiment: Anti-HIV activity: protection of HIV-infected MT-4 cells from virus-induced cell lesions; assay type: cell-based
Procedure: (§1) Anti-virus activity of cells in vitro was determined by Rega Institute for Medical of […] Katholleke University, consisting mainly: inhibitory activity towards HIV-infected MT-4 cells and cell toxicity. The method is described below: exert the compound on the HIV-infected ME-4 cells, and determine the protection of the drug on the cell lesions induced by HIV at varied HIV-infection intervals, calculate the half effective concentration IC50, the required concentration that protect 50% of cells from cell lesions induced by HIV. Toxicity determination is carried out in parallel with anti-HIV activity experiments, also in the cultured MT-4 cells, determine the CC50, the concentration that leads 50% of uninfected cells to cell lesions, and calculate the selectivity index SI=CC50/IC50 with the MTT method.
(§2) Anti-HIV activity of various compounds is monitored by the inhibitory efficiency of drugs on the cell lesions induced by HIV. Carry out cell culture with MT-4 cells. The adopted virus strains are HIV-1 IIIB strain and drug-resistant viral strain of […].
(§3) The detailed operation is as follows: the compound is dissolved with DMSO or water and diluted with phosphate buffer saline, 3×10^5 MT-4 cells are cultured with 100 μL various concentrations of compounds for 1 h, then 100 μL suitable virus dilution is added to the compound, and the cells are cultured at 37° C. for 1 h. After being washed for 3 times, the cells are suspended again in the culture media containing or not compounds individually. Subsequently, the cells are transferred to the atmosphere containing 5% CO2 and cultured for 7 days at 37° C., and culture media containing or not compounds are used to replace or supplement the culture solution on the third day after infection. Kinds of culture conditions should be duplicated. The cell lesions caused by virus are monitored with reverse light microscopy everyday. Typically, the virus dilution applied in the present experiments generally cause cell lesion on the fifth day after infection. […] It should be emphasized that, when the compound is poorly water-soluble and can only be dissolved in DMSO, the ratio of DMSO to water is generally below 10% (the final concentration of DMSO in MT-4 cell culture media is smaller than 2%). Because DMSO can influence the anti-virus activity of the tested compounds, blank tests on the solution containing the same concentration of DMSO should be conducted in parallel. Additionally, the final concentration of DMSO is far below the concentration required to influence the replication of HIV-1 in T cells.

[1] = Cell toxicity in uninfected MT-4 cells (MTT method); assay type: cell-based; settings: human
Procedure: as §1, §3

MT-4 cells = experiment: as above; assay type: cell-based
Procedure: as §1, §3

[2] = test system: drug-resistant viral strain of L103N+Y181C; experiment: Anti-HIV activity in MT-4 cells, drug-resistant viral strain; assay type: cell-based, HIV-1
Procedure: as §1, §2, §3

[3] = HIV-1 IIIB, MT-4 cells, Table 3
[4] = Human immunodeficiency virus 1, IIIB, MT4, read-out: EC50 HIV-1(IIIB)
[5] = MT-4 cells, Table 3, read-out: EC50 HIV-1(IIIB)
[6] = MT-4 cells, Table 1, read-out: EC50 HIV-1(IIIB)
[7] = MT-4 cells, Table 1, read-out: EC50 103N + 181C
[8] = Human immunodeficiency virus 1, IIIB, MT4, MT-4 cells, Table 1, read-out: EC50 HIV-1(IIIB)
[9] = Human immunodeficiency virus 1, IIIB, MT4, MT-4 cells, Table 2, read-out: EC50 WT(IIIB)
[10] = HIV-1 IIIB, MT-4 cells, Table 1
[11] = Human immunodeficiency virus 1, MT4, read-out: EC50 103N + 181C, MT-4 cells, Table 1

SMILES	EC50 (HIV-1 IIIB strain; [5]) [µM]	CC50 (MT-4 cells; Table 3) [µM]	EC50 (HIV-1 IIIB strain; [6]) [µM]	CC50 (MT-4 cells; Table 1) [µM]	also measured
COc1ccc(Oc2nc(Nc3ccc(C#N)cc3)nc3ccccc23)cc1 [Compound 28]	–	–	–	–	SI (Selectivity index, the ratio of CC50/IC50) (HIV-1 IIIB strain; [3]): >1810; EC50 (HIV-1 IIIB strain; [4]): 0.187 µM; CC50 at 7 days ([1]; uninfected MT-4 cells, Table 3): > 3400 µM
N#Cc1ccc(Nc2nc(Oc3ccccc3Cl)c3ccccc3n2)cc1 [Compound 39]	0.057	343	–	–	–
Cc1cc(C)c(Oc2nc(Nc3ccc(C#N)cc3)nc3ccccc23)c(C)c1 [Compound 36]	0.023	> 34.1	–	–	–
CNc1nc(Nc2ccc(C#N)cc2)nc(Oc2ccc3ccccc3c2Br)c1C [Compound 17]	–	–	0.0154	177	EC50 [2, 7]: 6.15 µM
Cc1ccnc2c1NC(=O)c1cccnc1N2C1CC1 [NVP, nevirapine, reference compound]	–	–	–	–	EC50 (HIV-1 IIIB strain; [8]): 0.0751 µM; EC50 (HIV-1 IIIB strain; [9]): 0.0751 µM; CC50 at 7 days ([1]; Table 1): 5.41 µM; CC50 at 7 days ([1]; Table 3): > 15 µM
Cc1ccccc1Oc1nc(Nc2ccc(C#N)cc2)nc2ccccc12 [Compound 25]	–	–	–	–	SI (Selectivity index, the ratio of CC50/IC50) (HIV-1 IIIB strain; [3]): 1148; EC50 (HIV-1 IIIB strain; [4]): 0.0937 µM; CC50 at 7 days ([1]; uninfected MT-4 cells, Table 3): 108 µM
CCc1c(NC)nc(Nc2ccc(C#N)cc2)nc1Oc1ccc2cc(C#N)ccc2c1Br [Compound 18]	–	–	0.0062	304	EC50 [2, 7]: > 59.5 µM
Cc1cc(C)c(Oc2nc(Nc3ccc(C#N)cc3)nc3ccc(Cl)cc23)c(C)c1 [Compound 54]	0.0018	147	–	–	–
Cc1cccc(C)c1Oc1nc(Nc2ccc(C#N)cc2)nc2ccccc12 [Compound 43]	0.046	> 640	–	–	–
CC(C)c1c(Cl)nc(Nc2ccc(C#N)cc2)nc1Oc1ccc2cc(C#N)ccc2c1 [Compound 9]	–	–	0.05	436	EC50 [2, 7]: 3.36 µM
CCOc1cc(C#N)cc(OCC)c1Oc1nc(Nc2ccc(C#N)cc2)nc2ccccc12 [Compound 46]	0.0029	> 99.3	–	–	–
N#Cc1ccc(Nc2nc(Oc3c(Br)cc(Br)cc3Br)c3ccccc3n2)cc1 [Compound 34]	0.023	71	–	–	–
CNc1nc(Nc2ccc(C#N)cc2)nc(Oc2ccc3cc(C#N)ccc3c2)c1C(C)C [Compound 19]	–	–	0.0076	265	EC50 [2, 7]: 4.58 µM
Cc1cccc(Oc2nc(Nc3ccc(C#N)cc3)nc3ccccc23)c1 [Compound 27]	–	–	–	–	SI (Selectivity index, the ratio of CC50/IC50) (HIV-1 IIIB strain; [3]): >563; EC50 (HIV-1 IIIB strain; [4]): 0.625 µM; CC50 at 7 days ([1]; uninfected MT-4 cells, Table 3): > 352 µM
N#Cc1ccc(Nc2nccc(Oc3ccc4cc(C#N)ccc4c3Br)n2)cc1 [Compound 15]	–	–	0.0016	290	EC50 [2, 7]: 0.24 µM
N#Cc1ccc(Nc2nc(Oc3ccccc3)c3ccccc3n2)cc1 [Compound 30]	–	–	–	–	SI (Selectivity index, the ratio of CC50/IC50) (HIV-1 IIIB strain; [3]): >411; EC50 (HIV-1 IIIB strain; [4]): 0.887 µM; CC50 at 7 days ([1]; uninfected MT-4 cells, Table 3): > 365 µM
CNc1cc(Oc2cccc3cccnc23)nc(Nc2ccc(C#N)cc2)n1 [Compound 3]	–	–	–	–	SI (Selectivity index, the ratio of CC50/IC50) (HIV-1 IIIB strain; [10]): 6089; EC50 (HIV-1 IIIB strain; [4]): 0.0089 µM; EC50 [2, 11]: ≥ 54.2 µM; CC50 at 7 days ([1]; uninfected MT-4 cells, Table 1): 54.2 µM
N#Cc1ccc(Nc2nc(Oc3ccc(Cl)cc3Cl)c3ccccc3n2)cc1 [Compound 37]	0.028	114	–	–	–
N#Cc1ccc(Nc2nc(Oc3c(Cl)cc(Cl)cc3Cl)c3ccccc3n2)cc1 [Compound 42]	0.0035	244	–	–	–
COc1cc(C#N)cc(OC)c1Oc1nc(Nc2ccc(C#N)cc2)nc2ccccc12 [Compound 41]	0.0022	> 93.1	–	–	–
Cc1cc2ccccc2cc1Oc1ccnc(Nc2ccc(C#N)cc2)n1 [Compound 11]	–	–	0.0023	71.2	EC50 [2, 7]: > 70.9 µM
COc1nc(Nc2ccc(C#N)cc2)nc(Oc2cccc3cccnc23)c1C [Compound 8]	–	–	0.0178	31.8	–
COc1ccccc1Oc1nc(Nc2ccc(C#N)cc2)nc2ccccc12 [Compound 29]	–	–	–	–	SI (Selectivity index, the ratio of CC50/IC50) (HIV-1 IIIB strain; [3]): >6186; EC50 (HIV-1 IIIB strain; [4]): 0.03 µM; CC50 at 7 days ([1]; uninfected MT-4 cells, Table 3): > 186 µM
COc1cc(C#N)cc(Cl)c1Oc1nc(Nc2ccc(C#N)cc2)nc2ccccc12 [Compound 48]	0.0056	> 173	–	–	–
CCOc1cc(C#N)cc(OC)c1Oc1nc(Nc2ccc(C#N)cc2)nc2ccccc12 [Compound 52]	0.0026	> 130	–	–	–

SMILES	EC50 (HIV-1 IIIB strain; [5]) [µM]	CC50 (MT-4 cells; Table 3) [µM]	EC50 (HIV-1 IIIB strain; [6]) [µM]	CC50 (MT-4 cells; Table 1) [µM]	also measured
N#Cc1ccc(Nc2nccc(Oc3cccc4cccnc34)n2)cc1 [Compound 1]	–	–	–	–	SI (Selectivity index, the ratio of CC50/IC50) (HIV-1 IIIB strain; [10]): 13393; EC50 (HIV-1 IIIB strain; [4]): 0.0029 µM; EC50 [2, 11]: ≥ 38.8 µM; CC50 at 7 days ([1]; uninfected MT-4 cells, Table 1): 38.8 µM
CCOc1cc(C#N)cc(Cl)c1Oc1nc(Nc2ccc(C#N)cc2)nc2ccccc12 [Compound 49]	0.0059	> 594	–	–	–
Cc1c(Cl)nc(Nc2ccc(C#N)cc2)nc1Oc1cccc2cccnc12 [Compound 6]	–	–	0.0257	44.7	–
N#Cc1ccc(Nc2nc(Oc3ccc(Br)cc3)c3ccccc3n2)cc1 [Compound 26]	–	–	–	–	SI (Selectivity index, the ratio of CC50/IC50) (HIV-1 IIIB strain; [3]): 894; EC50 (HIV-1 IIIB strain; [4]): 0.263 µM; CC50 at 7 days ([1]; uninfected MT-4 cells, Table 3): 235 µM
N#Cc1ccc(Nc2nc(S(=O)(=O)c3ccccc3)c3ccccc3n2)cc1 [Compound 51]	0.589	> 215	–	–	–
N#Cc1ccc(Nc2nccc(Oc3cc4ccc(C#N)cc4cc3Br)n2)cc1 [Compound 16]	–	–	0.0011	55.4	EC50 [2, 7]: > 56.5 µM
N#Cc1ccc(Nc2nc(Sc3ccccc3)c3ccccc3n2)cc1 [Compound 44]	0.752	494	–	–	–
CCCOc1cc(C#N)cc(OCC)c1Oc1nc(Nc2ccc(C#N)cc2)nc2ccccc12 [Compound 47]	0.0032	> 66.7	–	–	–
COc1cc(C#N)cc(OC(C)C)c1Oc1nc(Nc2ccc(C#N)cc2)nc2ccccc12 [Compound 50]	0.0067	> 65.8	–	–	–
CC(C)Nc1cccnc1N1CCN(C(=O)c2cc3cc(NS(C)(=O)=O)ccc3[nH]2)CC1 [DLV, Delavirdine, reference compound]	–	–	–	–	SI (Selectivity index, the ratio of CC50/IC50) (HIV-1 IIIB strain; [10]): 12; EC50 (HIV-1 IIIB strain; [8]): 0.072 µM; EC50 (HIV-1 IIIB strain; [9]): 0.072 µM; SI (Selectivity index, the ratio of CC50/IC50) (HIV-1 IIIB strain; WT(IIIB), Table 2): 12; CC50 at 7 days ([1]; uninfected MT-4 cells, Table 1): 0.86 µM
N#Cc1ccc(Nc2nccc(Oc3ccc4cc(C#N)ccc4c3)n2)cc1 [Compound 14]	–	–	0.0033	67.8	EC50 [2, 7]: 6.3 µM
Cc1c(Oc2ccnc(Nc3ccc(C#N)cc3)n2)ccc2ccccc12 [Compound 10]	–	–	0.00346	114	EC50 [2, 7]: 11 µM
Cc1cnc(Nc2ccc(C#N)cc2)nc1Oc1cccc2cccnc12 [Compound 5]	–	–	0.0058	19.9	–
Cc1cc(Br)c(Oc2nc(Nc3ccc(C#N)cc3)nc3ccccc23)c(Br)c1 [Compound 35]	0.015	23.4	–	–	–
Cc1cc(C#N)cc(C)c1Oc1nc(Nc2ccc(C#N)cc2)nc2ccccc12 [Compound 45]	0.0036	> 172	–	–	–
Cc1ccc(Oc2nc(Nc3ccc(C#N)cc3)nc3ccccc23)cc1 [Compound 31]	–	–	–	–	SI (Selectivity index, the ratio of CC50/IC50) (HIV-1 IIIB strain; [3]): 8091; EC50 (HIV-1 IIIB strain; [4]): 0.042 µM; CC50 at 7 days ([1]; uninfected MT-4 cells, Table 3): 340 µM
N#Cc1ccc(Nc2nccc(Oc3ccc4cc(Br)ccc4c3Br)n2)cc1 [Compound 13]	–	–	0.0046	51.1	EC50 [2, 7]: > 50.4 µM
N#Cc1ccc(Nc2nc(Oc3ccc(F)cc3)c3ccccc3n2)cc1 [Compound 38]	0.156	310	–	–	–
CNc1nc(Nc2ccc(C#N)cc2)nc(Oc2cccc3cccnc23)c1C [Compound 7]	–	–	0.0158	36.5	–
N#Cc1ccc(Nc2nc(Oc3ccc(Cl)cc3)c3ccccc3n2)cc1 [Compound 40]	0.167	> 396	–	–	–
Cc1cc(Br)cc(Br)c1Oc1nc(Nc2ccc(C#N)cc2)nc2ccccc12 [Compound 32]	–	–	–	–	SI (Selectivity index, the ratio of CC50/IC50) (HIV-1 IIIB strain; [3]): 8917; EC50 (HIV-1 IIIB strain; [4]): 0.0176 µM; CC50 at 7 days ([1]; uninfected MT-4 cells, Table 3): 157 µM
Cc1cc2ccccc2c(C)c1Oc1ccnc(Nc2ccc(C#N)cc2)n1 [Compound 12]	–	–	0.0041	313	EC50 [2, 7]: 1.17 µM
Cc1cc(C#N)ccc1Oc1nc(Nc2ccc(C#N)cc2)nc2ccccc12 [Compound 33]	0.028	> 333	–	–	–
Cc1cn([C@H]2C[C@H](N=[N+]=[N-])[C@@H](CO)O2)c(=O)[nH]c1=O [DDN/AZT, reference compound]	0.00517	> 93.5	–	–	–

From US8809343B2, “Pyrimidine derivative, preparation method and use thereof” (Fudan University, priority 2008, dated 2014)
